These results are taken from ChEMBL document CHEMBL4270652, “Design, synthesis, and biological activity of substituted 2-amino-5-oxo-5H-chromeno[2,3-b]pyridine-3-carboxylic acid derivatives as inhibitors of the inflammatory kinases TBK1 and IKKε for the treatment of obesity” (Bioorg Med Chem, 2018).

In brackets after ≈: the same amount, converted by molar mass. Activity calls are given as the source filed them. The calls are words filed in the database; no cut-off is given here. A value given as a limit tells only on which side of the number the result lay.

Data set [1] can be described thus: physchem. As to conditions: PBS, pH 7.4.
Description: Thermodynamic aqueous solubility in PBS of pH 7.4 after overnight incubation by chemiluminescent nitrogen detection
The subject of data set [2] is Mus musculus. Nature of the data set: Increase in serum IL6 levels in C57BL/6 obese mouse model at 25 mg/kg administered via oral gavage measured 6 hrs post treatment by ELISA. In kind it is functional, organism-based. Background: An ELISA detects its analyte on a solid surface through an enzyme-linked reagent.
Data set [3] has as its system Mus musculus. Nature of the data set: Antiobesity activity in C57BL/6 obese mouse model assessed as body weight loss at 25 mg/kg administered daily via oral gavage measured post 4 weeks of treatment. In kind it is functional, organism-based.
The test system of data set [4] is Mus musculus. Briefly: Antidiabetic activity in C57BL/6 obese mouse model assessed as reduction in blood glucose level at 25 mg/kg administered daily via oral gavage measured post 3 weeks of treatment by glucose tolerance test. The format is functional, organism-based.
Data set [5] concerns Mus musculus. Briefly: Induction of insulin-induced hypoglycemia in C57BL/6 obese mouse model at 25 mg/kg administered daily via oral gavage measured post 4 weeks of treatment by insulin tolerance test. In kind it is functional, organism-based.

The term solubility (thermodynamic) denotes solubility found after equilibrating the solid with the medium. Take `CC(C)Cc1ccc2oc3nc(N)c(C(=O)O)cc3c(=O)c2c1`: in data set [1], the thermodynamic solubility was 179 µM (≈ 55.8 µg/mL).

`CN(C)c1ccc2oc3nc(N)c(C(=O)O)cc3c(=O)c2c1` showed a thermodynamic solubility in data set [1] of 76.8 µM (≈ 23 µg/mL).

In data set [1], `CC(C)c1cccc2oc3nc(N)c(C(=O)O)cc3c(=O)c12` yielded a solubility (thermodynamic) of 229 µM (≈ 68.4 µg/mL).

As to `Nc1nc2oc3ccc(C4CCCCC4)cc3c(=O)c2cc1C(=O)O`, the outcome in data set [2], in data set [3], in data set [4] and in data set [5] was Active. The solubility (thermodynamic) in data set [1] is 94.4 µM (≈ 31.9 µg/mL).

`Nc1nc2oc3ccc(C4CCSCC4)cc3c(=O)c2cc1C(=O)O`: the solubility (thermodynamic) in data set [1] came out at 61.3 µM (≈ 21.8 µg/mL).

`CC(C)CCc1ccc2oc3nc(N)c(C(=O)O)cc3c(=O)c2c1`: the thermodynamic solubility in data set [1] came to 119 µM (≈ 38.8 µg/mL).

The compound `Nc1nc2oc3ccc(C4CCC(=O)CC4)cc3c(=O)c2cc1C(=O)O` yielded a thermodynamic solubility in data set [1] below 1.1 µM.

Turning to `CC(C)c1cc2c(=O)c3cc(C(=O)O)c(N)nc3oc2cc1F`, in data set [1], the solubility (thermodynamic) was found to be 13.7 µM (≈ 4.33 µg/mL).

Take `CC(C)c1ccc2oc3nc(N)c(C(=O)O)cc3c(=O)c2c1`: the outcome in data set [2], in data set [4] and in data set [5] was Active.

In data set [1], `CC(=O)N1CCC(c2ccc3oc4nc(N)c(C(=O)O)cc4c(=O)c3c2)CC1` came in with a solubility (thermodynamic) of 121 µM (≈ 46 µg/mL).

`CC(C)c1ccc2c(=O)c3cc(C(=O)O)c(N)nc3oc2c1` gave a solubility (thermodynamic) in data set [1] of 19.1 µM (≈ 5.7 µg/mL).

Turning to `CC(C)c1cc2c(=O)c3cc(C(=O)O)c(N)nc3oc2cn1`, the solubility (thermodynamic) in data set [1] was 77.9 µM (≈ 23.3 µg/mL).
